Data published in ChEMBL document CHEMBL3885861, “Open TG-GATES”.

Organism: Rattus norvegicus
Assay: Open TG-GATES - Regimen: Daily Repeat
Type: toxicity, organism-based, Sprague-Dawley
Parameters: regimen Daily Repeat, gender Male, age 6 weeks
Conditions: in vivo, po, 300 mg/kg, route gavage, dose level Middle; for APTT / Bas / Eos / Fbg / Hb / Ht / Lym / MCH / MCHC / MCV / Mono / Neu / PT / Plat / RBC / Ret / WBC: tissue Blood; for KIDNEY_L / KIDNEY_R / KIDNEY_TOTAL: tissue Kidney; for LIVER: tissue Liver; for A/G / ALP / ALT / AST / BUN / CRE / Ca / Cl / DBIL / GLC / IP / K / LDH / Na / PL / RALB / TBIL / TC / TG / TP / gamma-GTP: tissue Plasma

CNC(=C[N+](=O)[O-])NCCSCc1ccc(CN(C)C)o1 [RANITIDINE]
TERMINAL_BW (72 h, time 3 day): 231.7 g
APTT (72 h, time 3 day): 20.3 s
Bas (72 h, time 3 day): 0%
Eos (72 h, time 3 day): 1%
Fbg (72 h, time 3 day): 234.4 mg/dL
Hb (72 h, time 3 day): 13.5 g/dL
Ht (72 h, time 3 day): 39.4%
Lym (72 h, time 3 day): 78.8%
MCH (72 h, time 3 day): 21.9 pg
MCHC (72 h, time 3 day): 34.3%
MCV (72 h, time 3 day): 63.8 fL
Mono (72 h, time 3 day): 3.2%
Neu (72 h, time 3 day): 15.8%
PT (72 h, time 3 day): 12.4 s
Plat (72 h, time 3 day): 118.4 x10_4/uL
RBC (72 h, time 3 day): 616.4 x10_4/ul
Ret (72 h, time 3 day): 5.1%
WBC (72 h, time 3 day): 112.2 x10_2/uL
KIDNEY_L (72 h, time 3 day): 1 g
KIDNEY_R (72 h, time 3 day): 1 g
KIDNEY_TOTAL (72 h, time 3 day): 2 g
LIVER (72 h, time 3 day): 11.1 g
A/G (72 h, time 3 day): 1.6
ALP (72 h, time 3 day): 966.2 IU/L
ALT (72 h, time 3 day): 43.4 IU/L
AST (72 h, time 3 day): 80 IU/L
BUN (72 h, time 3 day): 14.8 mg/dL
CRE (72 h, time 3 day): 0.4 mg/dL
Ca (72 h, time 3 day): 10.9 mg/dL
Cl (72 h, time 3 day): 104 meq/L
DBIL (72 h, time 3 day): 0.09 mg/dL
GLC (72 h, time 3 day): 196.6 mg/dL
IP (72 h, time 3 day): 7.2 mg/dL
K (72 h, time 3 day): 4.2 meq/L
LDH (72 h, time 3 day): 195.6 IU/L
Na (72 h, time 3 day): 141.2 meq/L
PL (72 h, time 3 day): 142.8 mg/dL
RALB (72 h, time 3 day): 3.4 g/dL
TBIL (72 h, time 3 day): 0.1 mg/dL
TC (72 h, time 3 day): 78.4 mg/dL
TG (72 h, time 3 day): 80 mg/dL
TP (72 h, time 3 day): 5.5 g/dL
gamma-GTP (72 h, time 3 day): 1.8 IU/L
TERMINAL_BW ([…], time 7 day): 260.6 g
TERMINAL_BW ([…], time 14 day): 309.4 g
TERMINAL_BW ([…], time 28 day): 391.7 g
APTT ([…], time 7 day): 20.6 s
Bas ([…], time 7 day): 0%
Eos ([…], time 7 day): 1%
Fbg ([…], time 7 day): 227.4 mg/dL
Hb ([…], time 7 day): 14.1 g/dL
Ht ([…], time 7 day): 39.9%
Lym ([…], time 7 day): 83.6%
MCH ([…], time 7 day): 22 pg
MCHC ([…], time 7 day): 35.5%
MCV ([…], time 7 day): 62 fL
Mono ([…], time 7 day): 1.6%
Neu ([…], time 7 day): 12.4%
PT ([…], time 7 day): 12.4 s
Plat ([…], time 7 day): 130.4 x10_4/uL
RBC ([…], time 7 day): 644.2 x10_4/ul
Ret ([…], time 7 day): 4.8%
WBC ([…], time 7 day): 81.6 x10_2/uL
APTT ([…], time 14 day): 19.1 s
Bas ([…], time 14 day): 0%
Eos ([…], time 14 day): 0.8%
Fbg ([…], time 14 day): 239.2 mg/dL
Hb ([…], time 14 day): 14.6 g/dL
Ht ([…], time 14 day): 40.6%
Lym ([…], time 14 day): 76.8%
MCH ([…], time 14 day): 21.3 pg
MCHC ([…], time 14 day): 36%
MCV ([…], time 14 day): 59.2 fL
Mono ([…], time 14 day): 2.4%
Neu ([…], time 14 day): 18.4%
PT ([…], time 14 day): 12.1 s
Plat ([…], time 14 day): 117.4 x10_4/uL
RBC ([…], time 14 day): 687.2 x10_4/ul
Ret ([…], time 14 day): 3.9%
WBC ([…], time 14 day): 111.2 x10_2/uL
APTT ([…], time 28 day): 21 s
Bas ([…], time 28 day): 0%
Eos ([…], time 28 day): 1.2%
Fbg ([…], time 28 day): 216.2 mg/dL
Hb ([…], time 28 day): 15.3 g/dL
Ht ([…], time 28 day): 43.2%
Lym ([…], time 28 day): 81.4%
MCH ([…], time 28 day): 20.5 pg
MCHC ([…], time 28 day): 35.4%
MCV ([…], time 28 day): 58.1 fL
Mono ([…], time 28 day): 1.8%
Neu ([…], time 28 day): 14%
PT ([…], time 28 day): 12.3 s
Plat ([…], time 28 day): 110 x10_4/uL
RBC ([…], time 28 day): 747 x10_4/ul
Ret ([…], time 28 day): 2.2%
WBC ([…], time 28 day): 117.7 x10_2/uL
KIDNEY_L ([…], time 7 day): 1.1 g
KIDNEY_R ([…], time 7 day): 1.1 g
KIDNEY_TOTAL ([…], time 7 day): 2.2 g
KIDNEY_L ([…], time 14 day): 1.2 g
KIDNEY_R ([…], time 14 day): 1.2 g
KIDNEY_TOTAL ([…], time 14 day): 2.4 g
KIDNEY_L ([…], time 28 day): 1.4 g
KIDNEY_R ([…], time 28 day): 1.5 g
KIDNEY_TOTAL ([…], time 28 day): 2.9 g
LIVER ([…], time 7 day): 11.7 g
LIVER ([…], time 14 day): 13.8 g
LIVER ([…], time 28 day): 16.3 g
A/G ([…], time 7 day): 1.5
ALP ([…], time 7 day): 802.2 IU/L
ALT ([…], time 7 day): 33.2 IU/L
AST ([…], time 7 day): 61.4 IU/L
BUN ([…], time 7 day): 14.6 mg/dL
CRE ([…], time 7 day): 0.4 mg/dL
Ca ([…], time 7 day): 10.6 mg/dL
Cl ([…], time 7 day): 103.8 meq/L
DBIL ([…], time 7 day): 0.084 mg/dL
GLC ([…], time 7 day): 211.6 mg/dL
IP ([…], time 7 day): 7.5 mg/dL
K ([…], time 7 day): 3.8 meq/L
LDH ([…], time 7 day): 159.2 IU/L
Na ([…], time 7 day): 141 meq/L
PL ([…], time 7 day): 138.2 mg/dL
RALB ([…], time 7 day): 3.4 g/dL
TBIL ([…], time 7 day): 0.1 mg/dL
TC ([…], time 7 day): 72.8 mg/dL
TG ([…], time 7 day): 83 mg/dL
TP ([…], time 7 day): 5.7 g/dL
gamma-GTP ([…], time 7 day): 1.4 IU/L
A/G ([…], time 14 day): 1.4
ALP ([…], time 14 day): 849.4 IU/L
ALT ([…], time 14 day): 36.4 IU/L
AST ([…], time 14 day): 70.4 IU/L
BUN ([…], time 14 day): 17.4 mg/dL
CRE ([…], time 14 day): 0.5 mg/dL
Ca ([…], time 14 day): 10.6 mg/dL
Cl ([…], time 14 day): 103.6 meq/L
DBIL ([…], time 14 day): 0.098 mg/dL
GLC ([…], time 14 day): 203.8 mg/dL
IP ([…], time 14 day): 7.1 mg/dL
K ([…], time 14 day): 4 meq/L
LDH ([…], time 14 day): 228.8 IU/L
Na ([…], time 14 day): 142.2 meq/L
PL ([…], time 14 day): 151.6 mg/dL
RALB ([…], time 14 day): 3.5 g/dL
TBIL ([…], time 14 day): 0.2 mg/dL
TC ([…], time 14 day): 68.6 mg/dL
TG ([…], time 14 day): 142.4 mg/dL
TP ([…], time 14 day): 6 g/dL
gamma-GTP ([…], time 14 day): 1 IU/L
A/G ([…], time 28 day): 1.3
ALP ([…], time 28 day): 642.2 IU/L
ALT ([…], time 28 day): 34.6 IU/L
AST ([…], time 28 day): 60.2 IU/L
BUN ([…], time 28 day): 18 mg/dL
CRE ([…], time 28 day): 0.5 mg/dL
Ca ([…], time 28 day): 10.5 mg/dL
Cl ([…], time 28 day): 102.8 meq/L
DBIL ([…], time 28 day): 0.1 mg/dL
GLC ([…], time 28 day): 200 mg/dL
IP ([…], time 28 day): 6.9 mg/dL
K ([…], time 28 day): 3.6 meq/L
LDH ([…], time 28 day): 112 IU/L
Na ([…], time 28 day): 141.2 meq/L
PL ([…], time 28 day): 138.4 mg/dL
RALB ([…], time 28 day): 3.4 g/dL
TBIL ([…], time 28 day): 0.2 mg/dL
TC ([…], time 28 day): 64.6 mg/dL
TG ([…], time 28 day): 125.6 mg/dL
TP ([…], time 28 day): 6.1 g/dL
gamma-GTP ([…], time 28 day): 1 IU/L
